The conditions of data set [1]: mean ± SD, n = 3; for Stability 4℃, 5-D (%): Table S1.
Experimental: The HPLC analyses were performed on an Agilent Technology 1260 infinity system (Agilent Technology Inc., Waldbronn, Germany) equipped with an Agilent ChemStation software Rev. B.04.03-SP2 (105), a binary pump, a degasser, an autosampler, a thermostatted sample reservoir, a thermostatted column compartment, and a UV-detector. A Capcell-pak C18 UG120 column (4.6 mm × 250 mm, 5 μm, Osaka Soda Co. Ltd., Osaka, Japan) was used as an analytical column. The mobile phase was composed of 10 mM NaH2PO4 (pH 1.61–1.63) and 100% ACN (78:22, v/v) with isocratic elution at pH of 2.0–2.1 using a flow rate of 1.0 mL/min. The sample reservoir and column oven were maintained at 4 °C and 25 °C, respectively. The analytes were detected using a UV detector with the wavelength set at 220 nm, and the injection volume was 25 μL.
(§1) The aqueous supernatant (approximately 100 μL) was prepared as the final sample extract after rinsing with 600 μL of chloroform.
(§2) The recovery of the sample preparation method was estimated by dividing the peak area for the pre-spiked sample by the peak area for the post-spiked sample, multiplied by 100. […] Short- and long-term stability was evaluated after storage at 4 °C for 36 h and −70 °C for 24 days. Freeze-thaw stability was assessed with three freeze-thaw cycles at −70 °C. The post-preparation stability was also examined at 4 °C for 24 h.
The subject of a further data set is SARS-CoV-2 (COVID-19). The conditions noted are these: read-out: Half-maximal inhibitory concentration (IC50) against SARS-CoV-2; in vitro; preventing viruses' entrance into the cytoplasm; cited from earlier work.
Data set [2] in a line: Post-preparation stability of teicoplanin and IS mixture (processed plasma extract). It is filed as physicochemical, human. The conditions noted are these: mean ± SD, n = 3.
Experimental: as §1, §2
The conditions of data set [3]: cited from earlier work.

Results on four substances are retold here after PMC8072975 (Pharmaceutics, 2021).

Read-outs that look alike come from different tables or passages of the source.

For the substance polymyxin B [IS], the “Stability −70 °C, 24-d (%)” value in data set [1] (long-term, human plasma, IS 100 mg/L, peak area of polymyxin B2, HPLC-UV 220 nm) came to 112.2 ± 8.74%. Moreover, the “Stability 4 °C, 36 h (%)” value in data set [1] (short-term, human plasma, IS 100 mg/L (polymyxin B mixture), peak area of polymyxin B2, HPLC-UV 220 nm) came to 96.19 ± 2.79%. Besides, in data set [1] (three freeze-thaw cycles at −70 °C, human plasma, IS 100 mg/L, peak area of polymyxin B2, HPLC-UV), the “Stability Freeze-Thaw (%)” value stood at 111.5 ± 7.36%.

teicoplanin: in the data set on SARS-CoV-2 (COVID-19), the IC50 is 1660 nM.

For the substance teicoplanin A2-2, the “Stability Post-preparation, 7-D (%)” value in data set [2] (Table S1, H, 500.0 mg/L) is 102.58 ± 7.60%; in data set [2] (Table S1, L, 7.81 mg/L) it was 108.56 ± 24.10%; in data set [2] (Table S1, M, 62.5 mg/L), 105.94 ± 2.00%. Further, the “Stability 4℃, 5-D (%)” value is reported as 101.84 ± 1.59% in data set [1] (H, 500.0 mg/L) and 100.96 ± 11.32% in data set [1] (L, 7.81 mg/L).

Turning to vancomycin, the Half-life in data set [3] was ~10 h.
